Read-outs that look alike come from different tables or passages of the source.
Experiments:
WT-TTR [1] = biological target: T1, WT-TTR (Homo sapiens, UniProt P02766); assay: RP-HPLC analysis of conjugation to recombinant WT-TTR; type: binding; settings: data not shown
T1 construct: composed of 127-residue β-sheet-rich subunits; made in house; host or cells: E. coli
Protocol: The ability of candidate covalent kinetic stabilizers Compounds 1-4 to form a chemoselective amide bond with the K15 residue of WT-TTR was assessed by incubating the recombinant WT-TTR tetramer (3.6 μM) with Compounds 1-4 (7.2 μM, the minimum concentration required to covalently modify both T4 binding sites) for 18 hours at 25° C. The stilbene-TTR conjugate was quantified by reverse-phase (RP)-HPLC using a denaturing acetonitrile gradient.
Recombinant WT-TTR was expressed as described previously [Lashuel et al., Biochemistry 38:13560-13573 (1999)]. For analysis of test compounds with TTR, each compound (1.5 μL in DMSO, 1.44 mM) was added to 300 μL of WT-TTR or K15A mutant TTR (3.6 μM, 10 mM sodium phosphate, 100 mM KCl, 1 mM EDTA, pH 7.0). The samples were vortexed, and incubated for 18 hours at 25° C. Reverse phase high performance liquid chromatography (RP-HPLC) was performed on a Water 600 E multi-solvent delivery system, using a Waters 486 tunable absorbance detector, a 717 autosampler, and a ThermoHypersil Keystone Betabasic-18 column μ150 Å pore size, 3 μm particle size, and mobile phase A; 0.1% TFA in 95% H2O+5% CH3CN and mobile phase B, 0.1% TFA in 95% CH3CN+5% H2O). Linear gradients were run from 100:0 to 0:100 A:B for 27 minutes.

[2] = test system: WT-TTR cytotoxicity in human IMR-32 neuroblastoma cells; assay: Inhibition of WT-TTR cytotoxicity in IMR-32 cells (resazurin reduction); type: cell-based; settings: WT-TTR 8 μM, compounds 2, 4, 6 and 8 μM, 24 hours
Protocol: Cell viability was measured after 24 hours by a resazurin reduction assay.
(§1) The human neuroblastoma IMR-32 cell line (CCL-127 ATCC) was maintained in Opti-MEM® medium (Invitrogen), supplemented with 5% FBS, 1 mM Hepes buffer, 2 mM L-glutamine, 100 units/mL penicillin, 100 μg/mL streptomycin and 0.05 mg/mL CaCl2 (complete cell medium). Cells were seeded in black wall, clear bottom, tissue culture treated 96-well plates (Costar) at a density of 6,000 cells/well in complete cell medium and incubated overnight (about 18 hours) at 37° C.
(§2) Recombinant WT-TTR purified in the cold was used as the cytotoxic insult. The protein was buffer-exchanged in Hanks' Balanced Salt Solution (HBSS, Mediatech, Manassas, Va.) at 10° C. using a Centriprep® filter device (10 kDa MWCO, Millipore). Compounds (16 mM in DMSO) were diluted 1:1000 with WT-TTR (16 μM in HBSS, filter sterilized) or with HBSS only, vortexed and incubated for 18 hours at 37° C. WT-TTR (16 μM in HBSS) containing the same amount of DMSO was prepared in parallel and incubated under the same conditions.
(§3) The medium was removed from the cells and replaced immediately by the TTR/compound mixtures or HBSS previously diluted 1:1 in Opti-MEM® supplemented with 0.8 mg/mL BSA, 2 mM Hepes buffer, 4 mM L-glutamine, 200 units/mL penicillin, 200 μg/mL streptomycin and 0.1 mg/mL CaCl2. The cells were incubated 24 hours at 37° C. Cell viability was evaluated by a resazurin reduction assay.
(§4) Briefly, 10 μL of resazurin (500 μM, PBS) was added to each well and fluorescence quantified in a plate reader (Ex/Em 530/590 nm, Tecan Safire 2, Austria) after 1 hour of incubation at 37° C. Cell viability was calculated as percentage of fluorescence relative to cells treated only with vehicle (100% viability) after subtraction of blank fluorescence (wells without cells). Averages and standard errors from 2 independently performed studies, each performed at least in triplicate, were calculated using GraphPrism (San Diego, Calif., US).

IMR-32 cells = assay: Compound cytotoxicity to IMR-32 cells in the absence of WT-TTR; type: cell-based, human
Protocol: Metabolically active cells reduce the resazurin redox dye to resorufin, a soluble fluorescent compound. [O'Brien et al., Eur. J. Biochem. 267:5421-5426 (2002)] The percentage of viable cells was calculated relative to cells treated with vehicle only (cell culture media and DMSO=100% viable).
as §1, §2, §3, §4

K15A-TTR [3] = biological target: T2, K15A-TTR (Homo sapiens, UniProt P02766, K35A); assay: Acid-mediated K15A-TTR fibril formation with non-covalent stabilizers; type: biochemical; settings: compound 7.2 μM, 72 hours, pH 4.4
T2 construct: composed of 127-residue β-sheet-rich subunits; made in house
Protocol: Compounds (5 μL of 1.44 mM solution in DMSO) were added to 495 μL of TTR (7.2 μM, in 10 mM sodium phosphate, 100 mM KCl, 1 mM EDTA, pH 7.0). The mixtures were vortexed and incubated (maintained) for 18 hours at 25° C. An acidic buffer solution (500 μL, 100 mM acetate, 100 mM KCl, 1 mM EDTA, pH 4.2) was added to obtain a final pH value of 4.4, and the mixtures were incubated at 37° C. for 72 hours without agitation. The solutions were vortexed to evenly distribute any precipitate, and turbidity was measured at 400 nm using a Hewlett Packard model 8453 UV-VIS Spectrophotometer.

WT-TTR [4] = biological target: T1, WT-TTR; assay: Acid-mediated WT-TTR fibril formation assay (turbidity at 400 nm); type: biochemical; settings: WT-TTR 3.6 μM, % fibril formation after 72 hours; read-out: IC50 (apparent), inhibition of WT-TTR amyloidogenesis
Protocol: The mixtures were vortexed and incubated (maintained) for 18 hours at 25° C.

[5] = Photoisomerization upon irradiation (312 nm, 10 seconds); type: physicochemical; settings: 312 nm
Protocol: Although TTR can bind to small molecules composed of two aromatic rings when the tethered rings are up to 40° out of plane {based on TTR-stilbene crystal structures [Klabunde et al., Nat. Struct. Biol. 2000, 7, 312-321; Connelly et al., Curr. Opin. Struc. Biol. 2010, 20, 54-62; Johnson et al., J. Med. Chem. 2008, 51, 6348-6358; Choi et al., J. Am. Chem. Soc. 2010, 132, 1359-1370; Choi et al., Nat. Chem. Biol. 2010, 6, 133-139; Baures et al., Bioorg. Med. Chem. 1998, 6, 1389-1401; and Baures et al., Bioorg. Med. Chem. 1999, 7, 1339-1347]}, it would be energetically unfavorable to bind the excited singlet state in a conformation where the two aryl rings are oriented perpendicular to one another. Thus, we propose that the increase in fluorescence quantum yield of B2 from 0.09 in buffer to 0.55 in complex with TTR results from the resculpted excited singlet state energy surface of the stilbene in complex with TTR, such that the trans-conformer is the only state of relatively low potential energy [Gorner, H.; Kuhn, H. J. Adv, Photochem. 1995, 19, 1-117; Malkin et al., J. Phys. Chem. 1964, 68, 1153-1163; Saltiel, J. J. Am. Chem. Soc. 1967, 89, 1036-1037; Saltiel et al., J. Am. Chem. Soc. 1972, 94, 6445-6457; Saltiel et al., J. Am. Chem. Soc. 1979, 101, 2982-2996; and Saltiel et al., J. Am. Chem. Soc. 1968, 90, 4759-4760] inhibiting photoisomerization-based relaxation of B2. That B2 binding to TTR inhibits B2 photoisomerization is consistent with the observation that the irradiation of B2 in buffer (Life Technologies, TFX-35M, 312 nm) for 10 seconds affords 60% of the cis isomer, along with other minor photoreaction products, whereas irradiation of B2 bound to TTR yields only 20% cis isomer.
It appears that the increase in fluorescence quantum yield of A2 from 0.00 in buffer to 0.27 in the TTR-(stilbene)n≦2 conjugate is only partly explained by the mechanism proposed for B2 [Gorner, H.; Kuhn, H. J. Adv, Photochem. 1995, 19, 1-117; Malkin et al., J. Phys. Chem. 1964, 68, 1153-1163; Saltiel, J. J. Am. Chem. Soc. 1967, 89, 1036-1037; Saltiel et al., J. Am. Chem. Soc. […]

[6] = Quantum yield measurement in buffer; type: physicochemical
Protocol: (§5) The covalent TTR modifier A1 or A2 or the non-covalent TTR ligand B2 (15 μL of a 1.44 mM solution in DMSO, final concentration: 7.2 μM) was added to 3 mL of a solution of WT-TTR homotetramer (0.2 mg/mL, 3.6 μM) in 10 mM phosphate, 100 mM KCl and 1 mM EDTA (pH 7.0 phosphate buffer). The samples were vortexed, and incubated for 18 hours at 25° C. Quantum yields were measured by following the instructions at the web site: jobinyvon.com/usadivisions/Fluorescence/applications/quantumyieldstrad.pdf. Quinine bisulfate in 0.5 M H2SO4 was used as a reference for comparison (Φf=0.546). [Crosby et al., J. Phys. Chem. 1971, 75, 991-1024.]

K15A-TTR [7] = biological target: T2, K15A-TTR; assay: Fluorimetric assay with recombinant K15A-TTR; type: binding; settings: B2 7.2 μM
Protocol: [The source words this procedure for another variant and says it was used here with some conditions changed.] The excitation spectra are shown with dotted traces (λmax=328 nm), and emission spectra are adjacently (λmax=384 nm). Very low fluorescence resulted from 328 nm excitation of stilbene Compounds 4 or 2 alone in buffer (FIGS. 4A and 4B; traces substantially on the X-axis).
WT-TTR was expressed in an E. coli expression system and purified as described previously. [Lashuel et al., Biochemistry 1999, 38, 13560-13573] The covalent TTR modifiers (A1 or A2) or the non-covalent TTR ligand B2 (5 μL of a 1.44 mM solution in DMSO, final concentration: 7.2 μM) were added to 1 mL of a solution of WT-TTR homotetramer (0.2 mg/mL, 3.6 μM) in 10 mM phosphate, 100 mM KCl and 1 mM EDTA (pH 7.0 phosphate buffer) in a 2 mL Eppendorf tube. The samples were vortexed, and incubated for 18 h at 25° C. The fluorescence changes were monitored using a Varian Cary 50 spectrofluorometer at 20° C. in a 1 cm path length quartz cell. The excitation slit was set at 5 nm and the emission slit was set at […]. The samples were excited at 328 nm and the emission spectra were collected from 350 to 550 nm.
WT-TTR was expressed and purified from an E. coli expression system as described previously. [Lashuel et al., Biochemistry 1999, 38:13560]. The covalent modifiers (Compounds 4 or 2) or the non-covalent TTR ligand Compound B2 (5 μL of a 1.44 mM solution in DMSO) were added to 1 mL of a solution of WT-TTR (0.2 mg/mL, 3.6 μM) in 10 mM phosphate, 100 mM KCl and 1 mM EDTA (pH 7.0) in a 2 mL Eppendorf tube. The samples were vortexed, and incubated for 18 hours at 25° C. The fluorescence changes were monitored using a Varian Cary 50 spectrofluorometer at 20° C. in a 1 cm path length quartz cell. The excitation slits was set at 5 nm and the emission slits was set at […]. The samples were excited at 328 nm and the emission spectra were collected from 330 to 550 nm (FIG. 4). The time-dependent fluorescence changes were monitored in similar manner (FIG. 5).

WT-TTR [8] = biological target: T1, WT-TTR; assay: Quantum yield measurement with WT-TTR; type: physicochemical; settings: compound 7.2 μM
Protocol: as §5

[9] = test system: familial amyloid polyneuropathy (FAP); settings: phase II/III placebo-controlled; cited from earlier work
[10] = test system: WT-TTR cytotoxicity in human IMR-32 neuroblastoma cells; settings: cited from earlier work

Compound: Cc1cc(/C=C/c2ccc(C(=O)Oc3ccc(F)cc3)cc2)cc(C)c1O [Compound 7]
- modification yield of the WT-TTR subunits (in words) (WT-TTR [1]): lower modification yield

Compound: Cc1cc(/C=C/c2ccc(C(=O)O)cc2)cc(C)c1O [Compound 8, reference compound]
- inhibition of WT-TTR cytotoxicity to IMR-32 cells (in words) [2]: clearly and dose-dependently inhibits IMR-32 cytotoxicity
- cytotoxicity to IMR-32 cells in the absence of WT-TTR (IMR-32 cells): None of these compounds were cytotoxic to IMR-32 cells
- stabilization of K15A-TTR (in words) (K15A-TTR [3]): additional stabilization of K15A-TTR was observed
- IC50 (WT-TTR [4]): ~3 µM

Compound: Cc1cc(/C=C/c2ccccc2)cc(C)c1O [Compound 9, reference compound]
- inhibition of WT-TTR cytotoxicity to IMR-32 cells (in words) [2]: clearly and dose-dependently inhibits IMR-32 cytotoxicity
- cytotoxicity to IMR-32 cells in the absence of WT-TTR (IMR-32 cells; human, IMR-32 neuroblastoma cells, 24 h, 8 µM): None of these compounds were cytotoxic to IMR-32 cells
- stabilization of K15A-TTR (in words) (K15A-TTR [3]): additional stabilization of K15A-TTR was observed

Compound: CCCNC(=O)c1cc(/C=C/c2cc(C)c(O)c(C)c2)cc(N(C)C)c1 [Compound B2, (E)-3-(dimethylamino)-5-(4-hydroxy-3,5-dimethylstyryl)-N-propylbenzamide]
- % cis isomer after irradiation bound to TTR [5]: 20%
- % cis isomer after irradiation in buffer [5]: 60%
- fluorescence quantum yield in buffer [6]: 0.09
- increase in fluorescence intensity upon binding to K15A-TTR (B2) (K15A-TTR [7]): approximately 4 fold
- fluorescence quantum yield in complex or conjugate with TTR (WT-TTR [8]): 0.55

Compound: O=C(O)c1ccc2nc(-c3cc(Cl)cc(Cl)c3)oc2c1 [Tafamidis]
- clinical efficacy in familial amyloid polyneuropathy [9]: halt the progression of familial amyloid polyneuropathy

Compound: Oc1ccc(C=Cc2cc(O)cc(O)c2)cc1 [resveratrol]
- inhibition of amyloid-formation-associated cytotoxicity (literature) [10]: known to inhibit amyloid-formation-associated cytotoxicity
